Results published in ChEMBL document CHEMBL5518246, “Discovery of Small Molecule Interleukin 17A Inhibitors with Novel Binding Mode and Stoichiometry: Optimization of DNA-Encoded Chemical Library Hits to In Vivo Active Compounds” (J Med Chem, 2024).
Values after ≈ are worked out from the molar mass of the structure shown.

Assay: Metabolic stability in human liver microsomes assessed as unbound intrinsic clearance at 0.5 uM measured after 4 hrs
Assay type: ADME, Microsome
Conditions: not given

CL free [mL/min/kg]	Structure (SMILES)
500	C[C@H](NC(=O)[C@H](CCc1ccccc1)NC(=O)c1cc(Cl)c(Cl)[nH]1)c1nc2cnccc2s1
233	O=C(N[C@@H](CCc1ccccc1)C(=O)NCc1cn2cccnc2n1)c1cc(Cl)c(Cl)[nH]1
6000	CN1C(=O)[C@@H](NC(=O)[C@@H](NC(=O)c2cc(Cl)c(Cl)[nH]2)C2CCCCC2)COc2ccccc21
200	C[C@H](NC(=O)[C@H](CCc1ccccc1)NC(=O)c1cc(Cl)c(Cl)[nH]1)c1cn2cccnc2n1
200	C[C@H](NC(=O)[C@]1(NC(=O)c2cc(Cl)c(Cl)[nH]2)CO[C@H](c2ccccc2)C1)c1ncc2c(n1)CN(CC(F)(F)F)C2
63.3	O=C(N[C@@]1(C(=O)NCc2cn3cccnc3n2)CO[C@H](c2ccccc2)C1)c1cc(Cl)c(Cl)[nH]1
70	CC(=O)N1CCO[C@@H](CNC(=O)[C@H](CCc2ccccc2)NC(=O)c2cc(Cl)c(Cl)[nH]2)C1
102	C[C@H](NC(=O)[C@]1(NC(=O)c2cc(Cl)c(Cl)[nH]2)CO[C@H](c2ccccc2)C1)c1cc2c(nn1)COC2
78.3	COCc1cnc([C@H](C)NC(=O)[C@]2(NC(=O)c3cc(Cl)c(Cl)[nH]3)CO[C@H](c3ccccc3)C2)nc1
115	O=C(N[C@@]1(C(=O)NCc2cn3cccnc3n2)CO[C@@H](c2ccccc2)C1)c1cc(Cl)c(Cl)[nH]1
183	C[C@H](NC(=O)[C@]1(NC(=O)c2cc(Cl)c(Cl)[nH]2)CO[C@H](c2ccccc2)C1)c1ncc2c(n1)CN(CCC(F)(F)F)C2
35000	O=C(CN1C(=O)[C@@H](NC(=O)[C@@H](NC(=O)c2cc(Cl)c(Cl)[nH]2)C2CCCCC2)CSc2ccccc21)Nc1ccccc1
217	C[C@H](NC(=O)[C@]1(NC(=O)c2cc(Cl)c(Cl)[nH]2)CO[C@H](c2ccccc2)C1)c1ncc2c(n1)CNC2
88.3	C[C@H](NC(=O)[C@]1(NC(=O)c2cc(Cl)c(Cl)[nH]2)CO[C@H](c2ccccc2)C1)c1ncc2c(n1)CN(C)C2
< 35	O=C(N[C@]1(C(=O)NCc2cn3cccnc3n2)CO[C@@H](c2ccccc2)C1)c1cc(Cl)c(Cl)[nH]1
160	O=C(N[C@@H](CCc1ccccc1)C(=O)NCCC1(O)CCOCC1)c1cc(Cl)c(Cl)[nH]1
35	CNC(=O)[C@H](CCc1ccccc1)NC(=O)c1cc(C)c[nH]1
107	COC[C@H](NC(=O)[C@H](CCc1ccccc1)NC(=O)c1cc(Cl)c(Cl)[nH]1)c1cn2cccnc2n1
85	CNC(=O)[C@@H]1C[C@@H](c2ccccc2)CN1C(=O)c1cc(Cl)c(Cl)[nH]1
135	O=C(N[C@@H](CCc1ccccc1)C(=O)NCC1(CO)CCOCC1)c1cc(Cl)c(Cl)[nH]1
333	C[C@H](NC(=O)[C@H](CCc1ccccc1)NC(=O)c1cc(Cl)c(Cl)[nH]1)c1cn2ccoc2n1
217	O=C(N[C@H](C(=O)NCc1cn2cccnc2n1)[C@@H]1C[C@H]1c1ccccc1)c1cc(Cl)c(Cl)[nH]1
98.3	O=C(N[C@@H](CCc1ccccc1)C(=O)NC[C@H]1COCCO1)c1cc(Cl)c(Cl)[nH]1
< 40	CNC(=O)[C@H](CCc1ccccc1)NC(=O)c1cc(Cl)c(Cl)[nH]1
60	O=C(N[C@@H](CCc1ccccc1)C(=O)NC[C@@H]1COCCO1)c1cc(Cl)c(Cl)[nH]1
217	CN1CCN(CCNC(=O)[C@H](CCc2ccccc2)NC(=O)c2cc(Cl)c(Cl)[nH]2)CC1

CL free [mL/min/kg]	Structure (SMILES)
533	O=C(N[C@H](C(=O)NCc1cn2cccnc2n1)[C@H]1C[C@@H]1c1ccccc1)c1cc(Cl)c(Cl)[nH]1
58.3	O=C(N[C@@H](CCc1ccccc1)C(=O)NC1(c2cn3cccnc3n2)CC1)c1cc(Cl)c(Cl)[nH]1
113	O=C(N[C@@H](CCc1ccccc1)C(=O)NCC1(O)CCOCC1)c1cc(Cl)c(Cl)[nH]1
125	CC[C@H](NC(=O)[C@H](CCc1ccccc1)NC(=O)c1cc(Cl)c(Cl)[nH]1)c1cn2cccnc2n1
145	CNC(=O)[C@@H](NC(=O)c1cc(Cl)c(Cl)[nH]1)C1Cc2ccccc2C1
183	C[C@H](NC(=O)[C@]1(NC(=O)c2cc(Cl)c(Cl)[nH]2)CO[C@H](c2ccccc2)C1)c1cnc2c(n1)COC2
938	O=C(N[C@@H](CCc1ccccc1)C(=O)N[C@@H](CO)c1cn2cccnc2n1)c1cc(Cl)c(Cl)[nH]1
56.7	CC(=O)N1CCO[C@H](CNC(=O)[C@H](CCc2ccccc2)NC(=O)c2cc(Cl)c(Cl)[nH]2)C1
667	O=C(N[C@H](C(=O)NCc1cn2cccnc2n1)[C@H]1CCc2ccccc2C1)c1cc(Cl)c(Cl)[nH]1
90	CNC(=O)[C@@H](NC(=O)c1cc(Cl)c(Cl)[nH]1)C1CCCCC1
< 28.3	C[C@H](NC(=O)[C@]1(NC(=O)c2cc(Cl)c(Cl)[nH]2)CO[C@H](c2ccccc2)C1)c1ncc(CO)cn1
120	O=C(N[C@H](C(=O)NCc1cn2cccnc2n1)C1Cc2ccccc2C1)c1cc(Cl)c(Cl)[nH]1
350	CC(C)(NC(=O)[C@H](CCc1ccccc1)NC(=O)c1cc(Cl)c(Cl)[nH]1)c1cn2cccnc2n1
333	C[C@H](NC(=O)[C@]1(NC(=O)c2cc(Cl)c(Cl)[nH]2)CO[C@H](c2ccccc2)C1)c1ncc2c(n1)CCC2
1680	C[C@H](NC(=O)[C@H](CCc1ccccc1)NC(=O)c1cc(Cl)c(Cl)[nH]1)c1cn2ccsc2n1
43.3	O=C(N[C@]1(C(=O)NCc2cn3cccnc3n2)CO[C@H](c2ccccc2)C1)c1cc(Cl)c(Cl)[nH]1
< 33	CNC(=O)[C@H](CC(C)(C)C)NC(=O)c1cc(Cl)c(Cl)[nH]1
200	C[C@H](NC(=O)[C@H](CCc1ccccc1)NC(=O)c1cc(Cl)c(Cl)[nH]1)c1cn2nccnc2n1
115	O=C(NC1(C(=O)NCc2cn3cccnc3n2)Cc2ccccc2C1)c1cc(Cl)c(Cl)[nH]1
1050	O=C(N[C@H](C(=O)NCc1cn2cccnc2n1)[C@@H]1CCc2ccccc2C1)c1cc(Cl)c(Cl)[nH]1
267	C[C@@H](NC(=O)[C@H](CCc1ccccc1)NC(=O)c1cc(Cl)c(Cl)[nH]1)c1cn2cccnc2n1
217	O=C(NC(CCc1ccccc1)C(=O)NCc1cn2cccnc2n1)c1cc(Cl)c(Cl)[nH]1 (racemic)
1030	O=C(NC(CCc1ccccc1)C(=O)NCc1cnc(N2CCOCC2)nc1)c1cc(Cl)c(Cl)[nH]1 (racemic)
817	O=C(NC(CCc1ccccc1)C(=O)NCc1cccnc1N1CCOCC1)c1cc(Cl)c(Cl)[nH]1 (racemic)
1120	O=C(NC(CCc1ccccc1)C(=O)NCc1cn2ccsc2n1)c1cc(Cl)c(Cl)[nH]1 (racemic)

Assay: Thermodynamic solubility of the compound at pH 7.4 measured after 48 hrs by UHPLC analysis
Assay type: physicochemical
Conditions: buffer, read-out: Therm_solubility

solubility thermodynamic at 48 h [µM]	Structure (SMILES)
5.3 (≈ 3.17 µg/mL)	C[C@H](NC(=O)[C@]1(NC(=O)c2cc(Cl)c(Cl)[nH]2)CO[C@H](c2ccccc2)C1)c1ncc2c(n1)CN(CC(F)(F)F)C2
31 (≈ 16 µg/mL)	C[C@H](NC(=O)[C@]1(NC(=O)c2cc(Cl)c(Cl)[nH]2)CO[C@H](c2ccccc2)C1)c1cc2c(nn1)COC2
0.82 (≈ 0.425 µg/mL)	COCc1cnc([C@H](C)NC(=O)[C@]2(NC(=O)c3cc(Cl)c(Cl)[nH]3)CO[C@H](c3ccccc3)C2)nc1
719 (≈ 371 µg/mL)	C[C@H](NC(=O)[C@]1(NC(=O)c2cc(Cl)c(Cl)[nH]2)CO[C@H](c2ccccc2)C1)c1ncc2c(n1)CNC2
190 (≈ 101 µg/mL)	C[C@H](NC(=O)[C@]1(NC(=O)c2cc(Cl)c(Cl)[nH]2)CO[C@H](c2ccccc2)C1)c1ncc2c(n1)CN(C)C2
60 (≈ 31 µg/mL)	C[C@H](NC(=O)[C@]1(NC(=O)c2cc(Cl)c(Cl)[nH]2)CO[C@H](c2ccccc2)C1)c1cnc2c(n1)COC2
67 (≈ 33.8 µg/mL)	C[C@H](NC(=O)[C@]1(NC(=O)c2cc(Cl)c(Cl)[nH]2)CO[C@H](c2ccccc2)C1)c1ncc(CO)cn1
3.8 (≈ 1.95 µg/mL)	C[C@H](NC(=O)[C@]1(NC(=O)c2cc(Cl)c(Cl)[nH]2)CO[C@H](c2ccccc2)C1)c1ncc2c(n1)CCC2
